In patent US9862717B2 (Merck Patent GmbH, priority 2014, dated 2018) one finds IC50 data, which are given here for 15 molecules.

Bounds are passed on as bounds.

The target in the first test is T1, CDK8/CycC (Homo sapiens, UniProt P49336).
T1 construct: purchased Invitrogen PV4402
T1 sequence (P49336 whole entry): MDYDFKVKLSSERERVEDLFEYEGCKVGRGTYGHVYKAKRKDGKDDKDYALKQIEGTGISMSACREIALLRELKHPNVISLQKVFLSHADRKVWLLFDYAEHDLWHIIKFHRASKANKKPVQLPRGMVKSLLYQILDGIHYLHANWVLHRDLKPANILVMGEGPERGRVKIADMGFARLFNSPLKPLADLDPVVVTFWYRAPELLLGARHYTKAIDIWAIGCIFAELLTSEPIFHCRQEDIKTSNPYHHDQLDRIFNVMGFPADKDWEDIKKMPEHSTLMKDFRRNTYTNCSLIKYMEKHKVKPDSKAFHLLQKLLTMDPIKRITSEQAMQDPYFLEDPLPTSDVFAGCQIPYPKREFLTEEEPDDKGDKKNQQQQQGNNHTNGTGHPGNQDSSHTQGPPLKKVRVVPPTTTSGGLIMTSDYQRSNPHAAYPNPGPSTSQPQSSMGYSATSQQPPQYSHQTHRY
T1 sequence (P24863 whole entry partner): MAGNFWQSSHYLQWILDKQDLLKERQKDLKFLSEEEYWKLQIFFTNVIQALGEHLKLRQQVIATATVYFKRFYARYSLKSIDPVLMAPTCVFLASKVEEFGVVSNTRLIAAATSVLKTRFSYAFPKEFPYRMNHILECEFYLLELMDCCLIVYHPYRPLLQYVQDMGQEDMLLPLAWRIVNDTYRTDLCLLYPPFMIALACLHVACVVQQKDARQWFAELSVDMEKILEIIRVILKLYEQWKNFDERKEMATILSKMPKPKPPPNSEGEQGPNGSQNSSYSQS
Briefly: FRET based Lanthascreen binding competition assay for CDK8 inhibitory activity. The settings on record: CDK8 co-expressed with CycC; class symbols; read-out: IC50. Put shortly: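 Competition binding of a dye-labeled ATP-competitive Alexa647 probe to CDK8 co-expressed with CycC, Eu-labeled via biotinylated anti-His antibody/streptavidin.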
In general terms: In TR-FRET formats the signal depends on donor and acceptor labels being close together.
Usually IC50 stands for the midpoint of a concentration-inhibition curve. Consider `Cc1n[nH]c2ncc(C(=O)N3CC[C@](O)(c4ccccc4)C3)cc12` [compound 198, ((S)-3-Hydroxy-3-phenyl-pyrrolidin-1-yl)-(3-methyl-1H-pyrazolo[3,4-b]pyridin-5-yl)-methanone], for which the IC50 fell in the range of 1 to 10 µM.

Consider `Cc1n[nH]c2ncc(C(=O)N3CCO[C@@](C)(c4ccc(Cl)cc4)C3)cc12` [compound 214, [(S)-2-(4-Chloro-phenyl)-2-methyl-morpholin-4-yl]-(3-methyl-1H-pyrazolo[3,4-b]pyridin-5-yl)-methanone], for which the IC50 lay within 1 to 10 µM.

Turning to `O=C(c1cnc2[nH]nc(C3CC3)c2c1)N1CCC[C@@H]1c1ccc(Cl)cc1` [compound 153, [(R)-2-(4-Chloro-phenyl)-pyrrolidin-1-yl]-(3-cyclopropyl-1H-pyrazolo[3,4-b]pyridin-5-yl)-methanone], the IC50 fell in the range of 0.1 to 1 µM.

Turning to `Nc1n[nH]c2ccc(C(=O)N3CC[C@@H](c4ccccc4)C3)cc12` [compound 88, (3-Amino-1H-indazol-5-yl)-((S)-3-phenyl-pyrrolidin-1-yl)-methanone], the IC50 is 0.1 to 1 µM.

With `Cc1n[nH]c2ncc(C(=O)N3CCCC[C@H]3Cc3ccccc3)cc12` [compound 24, ((S)-2-Benzyl-piperidin-1-yl)-(3-methyl-1H-pyrazolo[3,4-b]pyridin-5-yl)-methanone], the 50% inhibitory concentration (IC50) was in the range of 0.1 to 1 µM.

On to `Cc1n[nH]c2ncc(C(=O)N3CC[C@@H]3c3ccc(Cl)cc3)cc12` [compound 240, [(R)-2-(4-Chloro-phenyl)-azetidin-1-yl]-(3-methyl-1H-pyrazolo[3,4-b]pyridin-5-yl)-methanone], for which the concentration for half-maximal inhibition (IC50) lay in the range of 1 to 10 µM.

In the case of `Nc1n[nH]c2ccc(C(=O)N3CCCCC3Cc3ccccc3)cc12` (stereo in doubt) [compound 89, (3-Amino-1H-indazol-5-yl)-((R)-2-benzyl-piperidin-1-yl)-methanone], the IC50 lay in the range of 0.1 to 1 µM.

Regarding `COc1ccc([C@H]2CCCN2C(=O)c2cnc3[nH]nc(C)c3c2)cc1` [compound 223, [(R)-2-(4-Methoxy-phenyl)-pyrrolidin-1-yl]-(3-methyl-1H-pyrazolo[3,4-b]pyridin-5-yl)-methanone], the 50% inhibitory concentration (IC50) fell in the range of 1 to 10 µM.

With `Cc1n[nH]c2ncc(C(=O)N3CCC[C@@H]3c3ccc(Cl)cc3F)cc12` [compound 226, [(R)-2-(4-Chloro-2-fluoro-phenyl)-pyrrolidin-1-yl]-(3-methyl-1H-pyrazolo[3,4-b]pyridin-5-yl)-methanone], the IC50 lay within 1 to 10 µM.

With `Cc1n[nH]c2ncc(C(=O)N3CCC[C@@H]3c3cccc(Cl)c3)cc12` [compound 45, [(r)-2-(3-Chloro-phenyl)-pyrrolidin-1-yl]-(3-methyl-1H-pyrazolo[3,4-b]pyridin-5-yl)-methanone], the half-maximal inhibitory concentration (IC50) lay in the range of 0.1 to 1 µM.

With `O=C(c1cnc2[nH]nc(C(F)(F)F)c2c1)N1CCCC[C@H]1c1ccccc1` [compound 184, ((S)-2-Phenyl-piperidin-1-yl)-(3-trifluoromethyl-1H-pyrazolo[3,4-b]pyridin-5-yl)-methanone], the half-maximal inhibitory concentration (IC50) lay within 0.1 to 1 µM.

Regarding `Cc1n[nH]c2ncc(C(=O)N3CCCC3c3ccccc3Cl)cc12` (stereo not drawn) [compound 23, [2-(2-Chloro-phenyl)-pyrrolidin-1-yl]-(3-methyl-1H-pyrazolo[3,4-b]pyridin-5-yl)-methanone], the IC50 was in the range of 0.01 to 0.1 µM.

Still in this test, the particulars now being: IC50 [μM], CDK8 co-expressed with CycC; class symbols.
In turn, `Cc1n[nH]c2ncc(C(=O)N3CCCC3c3ccc(Cl)cc3)cc12` (racemic) [compound 10, [2-(4-Chloro-phenyl)-pyrrolidin-1-yl]-(3-methyl-1H-pyrazolo[3,4-b]pyridin-5-yl)-methanone] registered an IC50 of less than 0.01 µM.

Consider `Cc1n[nH]c2ccc(C(=O)N3CCOCC3c3ccc(Cl)cc3)cc12` (stereo not drawn) [compound 178], for which the IC50 is less than 0.01 µM.

Molecule `Nc1n[nH]c2ccc(C(=O)N3CCC3c3ccc(F)cc3)cc12` (stereo not drawn) [compound 105, (3-Amino-1H-indazol-5-yl)-[2-(4-fluoro-phenyl)-azetidin-1-yl]-methanone] yielded an IC50 of 0.01 to 0.1 µM.
